Measured values as given in PMC8781304, “Arene-Ruthenium(II) Complexes with Carbothiamidopyrazoles as a Potential Alternative for Antibiotic Resistance in Human” (Molecules, 2022).
Values joined by “and” are separate entries in the source; they are usually repeats but may differ in a detail not shown here. Equal entries are not always repeated.

Assays:
[1] = test system: Staphylococcus aureus ATCC 29213; assay: Fluorescence microscopy, Hoechst 33258 / propidium iodide viability; assay type: cell-based; conditions: S. aureus ATCC 29213; MIC concentration, 24 h
Method: (§1) Staphylococcus aureus ATCC 29213 and Staphylococcus epidermidis ATCC 12228 strains were treated with tested compounds 2a–2d and 3a–3d at a concentration 1 × MIC for 24h, while untreated cells were used as a growth control. After incubation, the cells were harvested and a suspension of 1 × 10^5 cells/mL in PBS was prepared. Following this, 1 µl of the fluorescent dyes Hoechst 33258 and propidium iodide (15 µg/mL each) (Sigma, St. Louis, MO, USA) were added. The obtained mixture was incubated in the dark at room temperature for 15–20 min. After incubation, the cell suspensions, placed on glass slides, were analyzed under an Olympus IX 70 fluorescence microscope (Shinjuku, Tokyo, Japan), using a 360–370 nm UV filter. Photos were taken at 10 × 20 magnification.

[2] = test system: Staphylococcus epidermidis ATCC 12228; assay: as above; assay type: cell-based; conditions: S. epidermidis ATCC 12228; MIC concentration, 24 h
Method: as §1

[3] = test system: human foreskin fibroblast HFF-1 (ATCC-SCRC-1041); assay: Cytotoxicity, MTT reduction assay; assay type: cell-based; conditions: HFF-1, MTT; for IC50: 24 h, tested 3.9–500 μM
Method: The cytotoxicity of arene-ruthenium(II) complexes 3a–3d was determined using the MTT (3-(4,5-dimethylthiazol-2-yl)-2,5-diphenyltetrazolium bromide; Sigma, St. Louis, MO, USA) reduction assay and a human foreskin fibroblast HFF-1 culture (ATCC-SCRC-1041) (LGC Standards Sp. z o.o., Poland) at a final concentration range of 3.9–500 µM. The HFF-1 cells were cultured in Dulbecco’s Modified Eagle’s Medium (DMEM; Sigma, St. Louis, MO, USA) with 15% fetal bovine serum (FBS; BioWest, Nuaillé, France) and penicillin/streptomycin (100 × stock solution; BioWest, Nuaillé, France), 1 × 10^6 cell/mL (100 µL/well) in 96-well tissue culture plates (Nunc, Roskilde, Denmark) for 24 h at 37 °C/5% CO2. The cells were then exposed to arene-ruthenium(II) complexes for 24 h at 37 °C. The control (untreated) cells were exposed to culture medium alone or culture medium containing 2% DMSO to exclude the effect of the solvent used to prepare the stock solutions of the tested complexes. Next, fresh culture medium (100 µL/well) and MTT (1.5 mg/mL, 50 µL/well) were added, and cells were incubated for two hours under the above conditions. MTT was […] blue formazan crystals produced by the metabolically active cells. Finally, the MTT solution was removed and replaced with 100 µL/well of 20% sodium dodecyl sulfate (SDS; Sigma, St. Louis, MO, USA) for 24 h (room temperature) to dissolve the blue formazan. Based on the absorbance (λ = 550 nm) of tested and control cells (100% viability), the percentage of cell viability after exposure was calculated. For each sample, the experiment was performed twice.

[4] = test system: S. epidermidis ATCC 12228; assay: Cell lysis (bacteriolysis, OD600); assay type: cell-based, Staphylococcus epidermidis; conditions: 1 × MBC

Row | Molecule | Change in bacterial viability (Hoechst 33258 / PI fluorescence) [1] | Change in bacterial viability (Hoechst 33258 / PI fluorescence) [2] | Concentration above which cytotoxicity was seen [3] | IC50 [3] | Cell lysis, change of OD600 [4]
1 | Cc1cc(C)[n+]2n1C(N)=[S+][Ru-]2[Cl].Cc1ccc(C(C)C)cc1.F[P-](F)(F)(F)(F)F [Compound 3a] | Less changes in cell survival | Less changes in cell survival | above 250 μM | 380 µM and > 350 µM | not found to change OD600 values
2 | CCc1cc(CC)[n+]2n1C(N)=[S+][Ru-]2[Cl].Cc1ccc(C(C)C)cc1.F[P-](F)(F)(F)(F)F [Compound 3b] | Less changes in cell survival | Less changes in cell survival | above 250 μM | 355 µM and > 350 µM | not found to change OD600 values
3 | [(η^6-p-cymene)Ru(1-[amino(thioxo)methyl]-5-hydroxy-3-phenyl-1H-pyrazole)PF6 [Compound 3c] | greatest changes in bacterial viability | greatest changes in bacterial viability | – | 264 µM | quite moderate decrease in OD600
